# Reference: US20040253262A1, “Biological compositions and methods for treatment of lymphoma” (priority 2003, published 2004)
# Tests used:
# spontaneous lymphoma = assay: Inbred PBA mouse model of lymphoma, survival after treatment; assay type: in vivo; conditions: 36 at start
# Protocol: A model based on inbred PBA mice which manifest a high incidence of tumor was used (Bailey et al., 1970, J Natl. Cancer Inst. 45(1):59-73). Mice six to eight weeks old were treated by the method as described in Shiyan Dongwu Yu Zhongliu Yanjiu (Experimental Animal & Tumor Research), April 2000, by Chinese Medical Technology Publisher.
# In the first series, the mice in group AY received 0.3 ml of the oral composition of the invention per day. The mice in group NY received 0.3 ml per day of a composition comprising at a similar concentration the same strain of yeast which had not been activated and conditioned. The mice in group CTX received subcutaneous injection of cyclophosphamide at a dose of 30 mg per kg body weight per day. […] The experiment was carried out over a 30-day treatment period.
# In the second series, the mice in group 2AY received 0.5 ml of the oral composition of the invention per day. The mice in group 2NY received 0.5 ml per day of a composition comprising the same strain of yeast which had not been activated and conditioned at a similar concentration. The mice in group 2CTX received subcutaneous injection of cyclophosphamide at a dose of 45 mg per kg body weight per day. […] The experiment was carried out over a 60-day treatment period.
# After the 30-day or 60-day treatment, the mice were fed a normal diet and allowed to live under the same environment. The health and survival of the mice were observed and compared over 180 days.
# Each group consisted of 36 mice at the beginning of the experiment (3 repeats). The total number of surviving mice in each group were counted at the end of every month up to 6 months after treatment stopped.
# Burkitt's lymphoma cells = assay: Athymic nude mouse model with transplanted Burkitt's lymphoma cells, survival after treatment; assay type: in vivo; conditions: 36 at start
# Protocol: A model based on transplantation of Burkitt's lymphoma cell in athymic nude mice was used (Gurtsevitch et al., 1988, Int J Cancer 15;41(1):87-95). The model was set up as described in Shiyan Dongwu Yu Zhongliu Yanjiu (Experimental Animal & Tumor Research), April 2000, by Chinese Medical Technology Publisher. Essentially, seven week old mice were injected intravenously each with 1×10^6 Burkitt's lymphoma cells.
# Twenty-one days after the injection of lymphoma cells, the mice were divided into two series of five groups: one series received treatment for 30 days, the other series received treatment for 60 days. […] The mice in group A received saline orally. The mice in group B received subcutaneous injection of cyclophosphamide at a dose of 30 mg per kg body weight per day. Group C received subcutaneous injection of cyclophosphamide at a dose of 45 mg per kg body weight per day. The mice in group D received 0.3 ml of the oral composition per day. Group E received 0.5 ml of the oral composition per day.
# After the 30-day or 60-day treatment, the mice were fed a normal diet and allowed to live under the same environment. The health and survival of the nude mice were observed and compared over 360 days.
# Each group consisted of 36 mice at the beginning of the experiment (3 repeats). The total number of surviving mice in each group were counted at the end of every month up to 12 months after treatment stopped.
smiles,measurement,setting,value
O=P1(N(CCCl)CCCl)NCCCO1 (stereo not drawn) [cyclophosphamide],total number of surviving mice,"spontaneous lymphoma; 30 mg/kg per day per table head (45 mg/kg elsewhere in the source) s.c., 60-day treatment (group 2CTX), day 0 after treatment period",36
same,total number of surviving mice,"spontaneous lymphoma; 30 mg/kg per day per table head (45 mg/kg elsewhere in the source) s.c., 60-day treatment (group 2CTX), day 30 after treatment period",36
same,total number of surviving mice,"spontaneous lymphoma; 30 mg/kg per day per table head (45 mg/kg elsewhere in the source) s.c., 60-day treatment (group 2CTX), day 60 after treatment period",29
same,total number of surviving mice,"spontaneous lymphoma; 30 mg/kg per day per table head (45 mg/kg elsewhere in the source) s.c., 60-day treatment (group 2CTX), day 90 after treatment period",21
same,total number of surviving mice,"spontaneous lymphoma; 30 mg/kg per day per table head (45 mg/kg elsewhere in the source) s.c., 60-day treatment (group 2CTX), day 120 after treatment period",14
same,total number of surviving mice,"spontaneous lymphoma; 30 mg/kg per day per table head (45 mg/kg elsewhere in the source) s.c., 60-day treatment (group 2CTX), day 150 after treatment period",14
same,total number of surviving mice,"spontaneous lymphoma; 30 mg/kg per day per table head (45 mg/kg elsewhere in the source) s.c., 60-day treatment (group 2CTX), day 180 after treatment period",8
same,total number of surviving mice,"spontaneous lymphoma; 30 mg/kg per day s.c., 30-day treatment, day 0 after treatment period",36
same,total number of surviving mice,"spontaneous lymphoma; 30 mg/kg per day s.c., 30-day treatment, day 30 after treatment period",33
same,total number of surviving mice,"spontaneous lymphoma; 30 mg/kg per day s.c., 30-day treatment, day 60 after treatment period",27
same,total number of surviving mice,"spontaneous lymphoma; 30 mg/kg per day s.c., 30-day treatment, day 90 after treatment period",19
same,total number of surviving mice,"spontaneous lymphoma; 30 mg/kg per day s.c., 30-day treatment, day 120 after treatment period",17
same,total number of surviving mice,"spontaneous lymphoma; 30 mg/kg per day s.c., 30-day treatment, day 150 after treatment period",0
same,total number of surviving mice,"spontaneous lymphoma; 30 mg/kg per day s.c., 30-day treatment, day 180 after treatment period",0
same,total number of surviving mice,"Burkitt's lymphoma cells; 30 mg/kg per day s.c. (group B), 30-day treatment, day 0 after treatment period",36
same,total number of surviving mice,"Burkitt's lymphoma cells; 30 mg/kg per day s.c. (group B), 30-day treatment, day 30 after treatment period",33
same,total number of surviving mice,"Burkitt's lymphoma cells; 30 mg/kg per day s.c. (group B), 30-day treatment, day 60 after treatment period",24
same,total number of surviving mice,"Burkitt's lymphoma cells; 30 mg/kg per day s.c. (group B), 30-day treatment, day 90 after treatment period",14
same,total number of surviving mice,"Burkitt's lymphoma cells; 30 mg/kg per day s.c. (group B), 30-day treatment, day 120 after treatment period",5
same,total number of surviving mice,"Burkitt's lymphoma cells; 30 mg/kg per day s.c. (group B), 30-day treatment, day 150 after treatment period",3
same,total number of surviving mice,"Burkitt's lymphoma cells; 30 mg/kg per day s.c. (group B), 30-day treatment, day 180 after treatment period",1
same,total number of surviving mice,"Burkitt's lymphoma cells; 30 mg/kg per day s.c. (group B), 30-day treatment, day 210 after treatment period",0
same,total number of surviving mice,"Burkitt's lymphoma cells; 30 mg/kg per day s.c. (group B), 30-day treatment, day 240 after treatment period",0
same,total number of surviving mice,"Burkitt's lymphoma cells; 30 mg/kg per day s.c. (group B), 30-day treatment, day 270 after treatment period",0
same,total number of surviving mice,"Burkitt's lymphoma cells; 30 mg/kg per day s.c. (group B), 30-day treatment, day 300 after treatment period",0
same,total number of surviving mice,"Burkitt's lymphoma cells; 30 mg/kg per day s.c. (group B), 30-day treatment, day 330 after treatment period",0
same,total number of surviving mice,"Burkitt's lymphoma cells; 30 mg/kg per day s.c. (group B), 30-day treatment, day 360 after treatment period",0
same,total number of surviving mice,"Burkitt's lymphoma cells; 30 mg/kg per day s.c. (group B), 60-day treatment, day 0 after treatment period",35
same,total number of surviving mice,"Burkitt's lymphoma cells; 30 mg/kg per day s.c. (group B), 60-day treatment, day 30 after treatment period",35
same,total number of surviving mice,"Burkitt's lymphoma cells; 30 mg/kg per day s.c. (group B), 60-day treatment, day 60 after treatment period",33
same,total number of surviving mice,"Burkitt's lymphoma cells; 30 mg/kg per day s.c. (group B), 60-day treatment, day 90 after treatment period",24
same,total number of surviving mice,"Burkitt's lymphoma cells; 30 mg/kg per day s.c. (group B), 60-day treatment, day 120 after treatment period",19
same,total number of surviving mice,"Burkitt's lymphoma cells; 30 mg/kg per day s.c. (group B), 60-day treatment, day 150 after treatment period",9
same,total number of surviving mice,"Burkitt's lymphoma cells; 30 mg/kg per day s.c. (group B), 60-day treatment, day 180 after treatment period",5
same,total number of surviving mice,"Burkitt's lymphoma cells; 30 mg/kg per day s.c. (group B), 60-day treatment, day 210 after treatment period",2
same,total number of surviving mice,"Burkitt's lymphoma cells; 30 mg/kg per day s.c. (group B), 60-day treatment, day 240 after treatment period",0
same,total number of surviving mice,"Burkitt's lymphoma cells; 30 mg/kg per day s.c. (group B), 60-day treatment, day 270 after treatment period",0
same,total number of surviving mice,"Burkitt's lymphoma cells; 30 mg/kg per day s.c. (group B), 60-day treatment, day 300 after treatment period",0
same,total number of surviving mice,"Burkitt's lymphoma cells; 30 mg/kg per day s.c. (group B), 60-day treatment, day 330 after treatment period",0
same,total number of surviving mice,"Burkitt's lymphoma cells; 30 mg/kg per day s.c. (group B), 60-day treatment, day 360 after treatment period",0
same,total number of surviving mice,"Burkitt's lymphoma cells; 45 mg/kg per day s.c. (group C), 30-day treatment, day 0 after treatment period",35
same,total number of surviving mice,"Burkitt's lymphoma cells; 45 mg/kg per day s.c. (group C), 30-day treatment, day 30 after treatment period",35
same,total number of surviving mice,"Burkitt's lymphoma cells; 45 mg/kg per day s.c. (group C), 30-day treatment, day 60 after treatment period",27
same,total number of surviving mice,"Burkitt's lymphoma cells; 45 mg/kg per day s.c. (group C), 30-day treatment, day 90 after treatment period",21
same,total number of surviving mice,"Burkitt's lymphoma cells; 45 mg/kg per day s.c. (group C), 30-day treatment, day 120 after treatment period",17
same,total number of surviving mice,"Burkitt's lymphoma cells; 45 mg/kg per day s.c. (group C), 30-day treatment, day 150 after treatment period",11
same,total number of surviving mice,"Burkitt's lymphoma cells; 45 mg/kg per day s.c. (group C), 30-day treatment, day 180 after treatment period",4
same,total number of surviving mice,"Burkitt's lymphoma cells; 45 mg/kg per day s.c. (group C), 30-day treatment, day 210 after treatment period",2
same,total number of surviving mice,"Burkitt's lymphoma cells; 45 mg/kg per day s.c. (group C), 30-day treatment, day 240 after treatment period",1
same,total number of surviving mice,"Burkitt's lymphoma cells; 45 mg/kg per day s.c. (group C), 30-day treatment, day 270 after treatment period",0
same,total number of surviving mice,"Burkitt's lymphoma cells; 45 mg/kg per day s.c. (group C), 30-day treatment, day 300 after treatment period",0
same,total number of surviving mice,"Burkitt's lymphoma cells; 45 mg/kg per day s.c. (group C), 30-day treatment, day 330 after treatment period",0
same,total number of surviving mice,"Burkitt's lymphoma cells; 45 mg/kg per day s.c. (group C), 30-day treatment, day 360 after treatment period",0
same,total number of surviving mice,"Burkitt's lymphoma cells; 45 mg/kg per day s.c. (group C), 60-day treatment, day 0 after treatment period",34
same,total number of surviving mice,"Burkitt's lymphoma cells; 45 mg/kg per day s.c. (group C), 60-day treatment, day 30 after treatment period",34
same,total number of surviving mice,"Burkitt's lymphoma cells; 45 mg/kg per day s.c. (group C), 60-day treatment, day 60 after treatment period",34
same,total number of surviving mice,"Burkitt's lymphoma cells; 45 mg/kg per day s.c. (group C), 60-day treatment, day 90 after treatment period",27
same,total number of surviving mice,"Burkitt's lymphoma cells; 45 mg/kg per day s.c. (group C), 60-day treatment, day 120 after treatment period",19
same,total number of surviving mice,"Burkitt's lymphoma cells; 45 mg/kg per day s.c. (group C), 60-day treatment, day 150 after treatment period",12
same,total number of surviving mice,"Burkitt's lymphoma cells; 45 mg/kg per day s.c. (group C), 60-day treatment, day 180 after treatment period",7
same,total number of surviving mice,"Burkitt's lymphoma cells; 45 mg/kg per day s.c. (group C), 60-day treatment, day 210 after treatment period",3
same,total number of surviving mice,"Burkitt's lymphoma cells; 45 mg/kg per day s.c. (group C), 60-day treatment, day 240 after treatment period",0
same,total number of surviving mice,"Burkitt's lymphoma cells; 45 mg/kg per day s.c. (group C), 60-day treatment, day 270 after treatment period",0
same,total number of surviving mice,"Burkitt's lymphoma cells; 45 mg/kg per day s.c. (group C), 60-day treatment, day 300 after treatment period",0
same,total number of surviving mice,"Burkitt's lymphoma cells; 45 mg/kg per day s.c. (group C), 60-day treatment, day 330 after treatment period",0
same,total number of surviving mice,"Burkitt's lymphoma cells; 45 mg/kg per day s.c. (group C), 60-day treatment, day 360 after treatment period",0
